Laboratory results taken from patent publication US9409887B2, “Mutant-selective EGFR inhibitors and uses thereof” (Celgene Avilomics Research, Inc., priority 2010, dated 2016).

Tests used:
[1] = biological target: EGFR-WT (Homo sapiens (Human), UniProt P00533); assay: Omnia biochemical assay, EGFR (WT) active enzyme; conditions: [EGFR-WT]=5 nM, [ATP]=15 uM, 30 min pre-incubation
Text: (§1) Omnia Assay Protocol for Potency Assessment Against EGFR (WT) and EGFR (T790M/L858R) Active Enzymes
(§2) Below describes the biochemical assay protocol using EGFR-WT and EGFR-T790M/L858R.
(§3) The mechanics of the assay platform are best described by the vendor (Invitrogen, Carlsbad, Calif.) on their website at the following URL: www.invitrogen.com/content.cfm?pageid=11338 or www.invitrogen.com/site/us/en/home/Pro ducts-and-Services/Applications/Drug-Discovery/Target-and-Lead-Identification-and-Validation/KinaseBiology/KB-Misc/Biochemical-Assays/Omnia-Kinase-Assays.html.
(§4) Briefly, 10× stocks of EGFR-WT (PV3872) from Invitrogen and EGFR-T790M/L858R (40350) from BPS Bioscience, San Diego, Calif., 1.13×ATP (AS001A) and appropriate Tyr-Sox conjugated peptide substrates (KCZ1001) were prepared in 1× kinase reaction buffer consisting of 20 mM Tris, pH 7.5, 5 mM MgCl2, 1 mM EGTA, 5 mM β-glycerophosphate, 5% glycerol (10× stock, KB002A) and 0.2 mM DTT (DS001A). 5 μL of each enzyme were pre-incubated in a Corning (#3574) 384-well, white, non-binding surface microtiter plate (Corning, N.Y.) for 30 min. at 25° C. with a 0.5 μL volume of 50% DMSO and serially diluted compounds prepared in 50% DMSO. Kinase reactions were started with the addition of 45 μL of the ATP/Tyr-Sox peptide substrate mix and monitored every 71 seconds for 60 minutes at λex360/λem485 in a Synergy^4 plate reader from BioTek (Winooski, Vt.). At the conclusion of each assay, progress curves from each well were examined for linear reaction kinetics and fit statistics (R^2, 95% confidence interval, absolute sum of squares). Initial velocity (0 minutes to ˜30 minutes) from each reaction was determined from the slope of a plot of relative fluorescence units vs time (minutes) and then plotted against inhibitor concentration to estimate IC50 from log [Inhibitor] vs Response, Variable Slope model in GraphPad Prism from GraphPad Software (San Diego, Calif.).
(§5) [EGFR-WT]=5 nM, [ATP]=15 uM, [Y12-Sox]=5 uM (ATP KMapp˜12 uM); and [EGFR-T790M/L858R]=2.5 nM, [ATP]=20 uM, [Y12-Sox]=5 uM (ATP KMapp˜20 uM).

[2] = biological target: EGFR-T790M/L858R (Homo sapiens (Human), UniProt P00533, L858R/T790M); assay: Omnia biochemical assay, EGFR (T790M/L858R) active enzyme; conditions: for IC50: [EGFR-T790M/L858R]=2.5 nM, [ATP]=20 uM, 30 min pre-incubation; for Ratio WT/mutant: biochemical IC50, WT EGFR vs EGFR (T790M/L858R)
Text: as §1, §2, §3, §4, §5

[3] = test system: WT-EGFR A431 cells; assay: Cell proliferation (CellTiter Glo, 72 hr) in A431 cells; type: cell-based; conditions: Homo sapiens, A-431
Procedure: (§6) A431 human epidermoid carcinoma, H1975 human NSCLC and HCC827 human NSCLC adenocarcinoma cells were obtained from the American Type Culture Center (Manassas, Va.). A431 cells were grown in DMEM (Invitrogen, Carlsbad, Calif.) supplemented with 10% FBS (HyClone, South Logan, Utah) and 1% Penicillin-Streptomycin (P/S, Lonza, Walkersville, Md.). H1975 and HCC827 cells were grown in complete RPMI 1640 (Invitrogen) supplemented with 10% FBS and 1% P/S. All cells were maintained and propagated as monolayer cultures at 37° C. in a humidified 5% CO2 incubator.
(§7) Cells were plated in Growth Media supplemented with 5% FBS and 1% P/S at a density of 3,000 cells per well in 96 well tissue culture plates (Corning). Cells were allowed to settle down for 4 hr and then treated with 5, 1.25, 0.31, 0.078, 0.020 or 0.005 μM test compound for 72 hr. Cell viability was determined by CellTiter Glo (Promega, Madison, Wis.) and results were converted to cell numbers using a standard curve. Growth inhibition (GI50) values were determined by Graph Pad Prism.

[4] = test system: H1975 (double mutation L858R/T790M) cells; assay: Cell proliferation (CellTiter Glo, 72 hr) in H1975 cells; type: cell-based, human; conditions: for GI50: Homo sapiens, NCI-H1975, H1975 cells, 72 hr; for Ratio WT/mutant (H1975): proliferation GI50, WT EGFR (A431) vs H1975
Procedure: as §6, §7

[5] = test system: HCC827 (delE746-A750 deletion mutation) cells; assay: Cell proliferation (CellTiter Glo, 72 hr) in HCC827 cells; type: cell-based, human; conditions: for GI50: Homo sapiens, HCC827 cells, 72 hr; for Ratio WT/mutant (HCC827): proliferation GI50, WT EGFR (A431) vs HCC827
Procedure: as §6, §7

[6] = biological target: WT EGFR (A431 cells) (Homo sapiens (Human), UniProt P00533); assay: Phospho-EGFR signaling (immunoblotting, 1 hr) in A431 cells; type: cell-based; conditions: 1 hr compound, EGF stimulated, phospho-EGFR (Y1068)
Procedure: as §6
(§8) All primary antibodies were obtained from Cell Signaling (Danvers, Mass.) and used at 1:1000. Secondary antibodies were used at 1:10,000. Goat anti-mouse IgG IRDye 800CW antibody was obtained from LiCor Biosciences (Lincoln, Nebr.) and goat anti-rabbit IgG Alexa Fluor 680 was obtained from Invitrogen.
(§9) Cells were grown in 12-well plates (Corning, Coring, N.Y.) to 90% confluence and then incubated in low-serum (0.1% FBS) media for 16-18 hr. […]
(§10) Lysate protein concentrations were determined by BCA Assay (Pierce, Rockford, Ill.) and 50 ug of each lysate was separated by 4-12% gradient SDS-PAGE (Invitrogen), transferred to nitrocellulose membrane (Biorad, Hercules, Calif.) and probed with specific antibodies. Phospho-protein signals were quantitated using Odyssey Infrared Imaging (Li-Cor Biosciences). […]

[7] = biological target: EGFR double mutation L858R/T790M (H1975 cells) (Homo sapiens (Human), UniProt P00533, L858R/T790M); assay: Phospho-EGFR signaling (immunoblotting, 1 hr) in H1975 cells; type: cell-based; conditions: for EC50: H1975 cells, 1 hr compound, phospho-EGFR (Y1068); for Ratio WT/mutant (H1975): signaling EC50, WT EGFR (A431) vs H1975
Procedure: as §6, §8
Cells were grown in 12-well plates (Corning, Coring, N.Y.) to 90% confluence and then incubated in low-serum (0.1% FBS) media for 16-18 hr. Cells were then treated with 5, 1.25, 0.31, 0.078, 0.020 or 0.005 μM test compound in low-serum (0.1% FBS) media for 1 hr. A431 cells were then stimulated with 50 ng/ml EGF (Peprotech, Rocky Hill, N.J.) for 15 min. After treatment, cell monolayers were washed with cold PBS (Invitrogen) and immediately lysed by scrapping into 60 uL cold Cell Extraction Buffer (Invitrogen) supplemented with Complete Protease inhibitors (Roche, Indianapolis, Ind.) and PhosphoSTOP (Roche) phosphatase inhibitors.
Lysate protein concentrations were determined by BCA Assay (Pierce, Rockford, Ill.) and 50 ug of each lysate was separated by 4-12% gradient SDS-PAGE (Invitrogen), transferred to nitrocellulose membrane (Biorad, Hercules, Calif.) and probed with specific antibodies. Phospho-protein signals were quantitated using Odyssey Infrared Imaging (Li-Cor Biosciences).
To assess phosphor-EGFR signaling, blots were probed with rabbit anti-Phospho-EGFR (Y1068) and mouse total anti-EGFR antibodies. Phospho-EGFR signal was normalized to total EGFR expression for each sample. Results are indicated as % DMSO control. Normalized data was fitted using a sigmoidal curve analysis program (Graph Pad Prism version 5) with variable Hill slope to determine the EC50 values.
The compound numbers recited in Table 3 correspond to the compound numbers in Table 1.

[8] = biological target: EGFR delE746-A750 mutation (HCC827 cells) (Homo sapiens (Human), UniProt P00533, DEL746-750); assay: Phospho-EGFR signaling (immunoblotting, 1 hr) in HCC827 cells; type: cell-based
Procedure: as §6, §8, §9, §10

[9] = test system: H1975 tumor; assay: H1975 tumor in vivo study; set-up: species or system nu/nu mice
Procedure: Female nu/nu mice were implanted with 1×10^7H1975 tumor cells in 50% Matrigel subcutaneously (0.2 ml injection volume) in the flank. Tumor measurements were recorded three times per week. Tumors were pair matched when they reached an average size of 100-150 mg. Group size was 10 mice. Test compound was administered intraperitoneal, 25 mg/kg or 50 mg/kg daily for 21 days. % Tumor inhibition was determined at 15 days and 18 days. Tumor volume was followed until tumors reached 1500 mm^3 or 60 days. Tumor inhibition value for I-1 was >80% for 25 mg/kg at both 15 and 18 days, and >90% for 50 mg/kg at both 15 and 18 days.

| IC50 [1] | IC50 [2] | Ratio WT/mutant [2] | GI50 [3] | GI50 [4] | GI50 [5] | EC50 [6] | EC50 [7] | Ratio WT/mutant (H1975) [7] | EC50 ([8]; HCC827 cells, 1 hr compound, phospho-EGFR (Y1068)) | Ratio WT/mutant (HCC827) ([8]; signaling EC50, WT EGFR (A431) vs HCC827) | Structure (SMILES) | Ratio WT/mutant (H1975) [4] | Ratio WT/mutant (HCC827) [5] | Tumor inhibition value ([9]; 25 mg/kg intraperitoneal daily, at 15 days) | Tumor inhibition value ([9]; 25 mg/kg intraperitoneal daily, at 18 days) | Tumor inhibition value ([9]; 50 mg/kg intraperitoneal daily, at 15 days) | Tumor inhibition value ([9]; 50 mg/kg intraperitoneal daily, at 18 days) |
| --- | --- | --- | --- | --- | --- | --- | --- | --- | --- | --- | --- | --- | --- | --- | --- | --- | --- |
| 100 to 300 nM | 1 to 10 nM | >50 | > 1000 nM | 100 to 500 nM | 10 to 100 nM | > 1000 nM | 100 to 500 nM | >10 |  |  | C=CC(=O)Nc1cccc(Nc2nc(Nc3ccc(NC4CN(C(=O)OC(C)(C)C)C4)cc3OC)ncc2C(F)(F)F)c1 [Compound I-3, tert-butyl 3-(4-(4-(3-acrylamidophenylamino)-5-(trifluoromethyl)pyrimidin-2-ylamino)-3-methoxyphenylamino)azetidine-1-carboxylate] | >5 | >20 |  |  |  |  |
| 1 to 10 nM | < 1 nM | >15 | > 1000 nM | 100 to 500 nM | 100 to 500 nM |  |  |  |  |  | C=CC(=O)Nc1cccc(Nc2nc(Nc3ccc(NC4CN(C(C)=O)C4)cc3OC)ncc2C(F)(F)F)c1 [Compound I-2, N-(3-(2-(4-(1-acetylazetidin-3-ylamino)-2-methoxyphenylamino)-5-(trifluoromethyl)pyrimidin-4-ylamino)phenyl)acrylamide] | >5 | >15 |  |  |  |  |

More lines, now with the values behind:

| Structure (SMILES) | IC50 [1] | IC50 [2] | Ratio WT/mutant [2] | GI50 [3] | GI50 [4] | GI50 [5] | EC50 [6] | EC50 [7] | Ratio WT/mutant (H1975) [7] | EC50 ([8]; HCC827 cells, 1 hr compound, phospho-EGFR (Y1068)) | Ratio WT/mutant (HCC827) ([8]; signaling EC50, WT EGFR (A431) vs HCC827) | Ratio WT/mutant (H1975) [4] | Ratio WT/mutant (HCC827) [5] | Tumor inhibition value ([9]; 25 mg/kg intraperitoneal daily, at 15 days) | Tumor inhibition value ([9]; 25 mg/kg intraperitoneal daily, at 18 days) | Tumor inhibition value ([9]; 50 mg/kg intraperitoneal daily, at 15 days) | Tumor inhibition value ([9]; 50 mg/kg intraperitoneal daily, at 18 days) |
| --- | --- | --- | --- | --- | --- | --- | --- | --- | --- | --- | --- | --- | --- | --- | --- | --- | --- |
| C=CC(=O)Nc1cccc(Nc2nc(Nc3ccc(NC(C)C)cc3OC)ncc2C(F)(F)F)c1 [Compound I-5, N-(3-(2-(4-(isopropylamino)-2-methoxyphenylamino)-5-(trifluoromethyl)pyrimidin-4-ylamino)phenyl)acrylamide] | 10 to 30 nM | < 1 nM | >20 | 500 to 1000 nM | 100 to 500 nM | 100 to 500 nM |  |  |  |  |  | >1 | >5 |  |  |  |  |
| C=CC(=O)Nc1cccc(Oc2nc(Nc3ccc(NC(C)C)cc3OC)ncc2Cl)c1 [Compound I-4, N-(3-(5-chloro-2-(4-(isopropylamino)-2-methoxyphenylamino)pyrimidin-4-yloxy)phenyl)acrylamide] | 30 to 100 nM | 1 to 10 nM | >25 | > 1000 nM | 500 to 1000 nM | 100 to 500 nM |  |  |  |  |  | >1 | >35 |  |  |  |  |
| C=CC(=O)Nc1cccc(Nc2nc(Nc3ccc(NC4CN(CCF)C4)cc3OC)ncc2C(F)(F)F)c1 [Compound I-1, N-(3-(2-(4-(1-(2-fluoroethyl)azetidin-3-ylamino)-2-methoxyphenylamino)-5-(trifluoromethyl)pyrimidin-4-ylamino)phenyl)acrylamide] | 1 to 10 nM | < 1 nM | >1 | 500 to 1000 nM | 10 to 100 nM | 10 to 100 nM | > 1000 nM | 10 to 100 nM | >35 | 100 to 500 nM | >10 | >10 | >10 | > 80% | > 80% | > 90% | > 90% |
